Consider four compounds from patent publication US11739120B2, “Water soluble salts of lipidated peptides and methods for preparing and using the same” (Bridge Biotherapeutics, Inc., priority 2018, dated 2023).

Values after ≈ are worked out from the molar mass of the structure shown. Residues, ends and D or L forms follow the SMILES beside them. *: point of attachment. Palmitoyl = CCCCCCCCCCCCCCCC(=O)*

Series [1] in a line: Aqueous solubility of Compound I-1 in the presence of excipients. It is filed as physicochemical. The conditions noted are these: 25° C. The method, then:
Specifically, about 50 mg of Compound I-1 was weighed into a 1.5-mL HPLC vial, and 0.2 mL of different media was then added to each vial. The mixtures were shaken at 25° C. under 700 rpm. After 24 hours of shaking, the slurries were centrifuged twice and analyzed. The supernatant was analyzed by HPLC.

The nature of series [2]: Stabilities of amorphous Compound I-1 (ICH guideline, XRPD). As to conditions: amorphous; 25±2° C./60±5% RH and 40±2° C./75±5% RH; ICH guideline. It is filed as physicochemical. As to the method:
Stabilities of amorphous Compound I-1 were also conducted according to ICH guideline.

Series [3] is described as follows: Solubility of amorphous, Form A and Form E of Compound I-1 in water (shaken at 25° C., HPLC). As to conditions: water; 25° C. It is filed as physicochemical. The method, then:
The solubility of amorphous, Form A or E of Compound I-1 in water was further studied. Specifically, about 250 mg Compound I-1 in amorphous, Forms A and E were each suspended in a 2 mL HPLC vial with 0.9 mL of water. Each suspension was then shaken at 25° C. under 1000 rpm. The suspensions were analyzed at 1 h and 24 h. In particular, at either the 1 h or 24 h time point, the slurries were centrifuged and analyzed by HPLC. The pH values of the mother liquors were measured, and the residues were characterized by XRPD.

Series [4] is described as follows: Physical stability of Compound I-1 in meglumine solutions. Format: physicochemical. As to conditions: for Appearance: precipitation after (storage time) / Appearance: no precipitation until (storage time): vehicle Meglumine, 25° C. As to the method: In contrast, an aqueous formulation with a concentration of Compound I-1 of 200 mg/mL, without meglumine, started forming precipitates after storing 1 day at 25° C.

The test system of series [5] is DSS induced colitis animal model. The experiment in a line: DSS induced colitis animal model. Format: in vivo. As to conditions: formulations containing Compound I-1. From the text: The compound of Formula I (e.g., Formula I-B or I-C, or any one of Compounds I-1 to I-10) described herein is useful for treating various diseases or disorders discussed herein. […] In addition, it was shown that effective concentration of the acid compounds can be retained in a targeted tissue (e.g., small intestinal tissues, large intestinal tissues, appendix tissues) for a sufficient time. […] Those skilled in the art would expect that the salts of Compound I-1-Acid, such as Compound I-1, be similarly efficacious.

The nature of series [6]: Aqueous solubility of Compound I-1 in the presence of excipients. As to conditions: approximate solubility by visual observation. It is filed as physicochemical.
Series [7] is described as follows: Water solubility of Compound I-1-Acid (further investigation). It is filed as physicochemical.
Series [8] deals with inflammatory bowel diseases, multiple sclerosis, and septicemia. The conditions noted are these: shown in U.S. application Ser. No. 15/205,853; cited from earlier work.
Series [9] in a line: Approximate solubility of Compound I-1-Acid in different solvents (manual dilution, visual observation). Format: physicochemical. The method, then: The solubility test was conducted by manual dilution combined with visual observation. As shown below, Compound I-1-Acid has poor solubility (<1 mg/mL) in most organic solvents and water (Table 1).
A short description of series [10]: Kinetic solubility of potassium salt Compound I-2 (further research). The conditions noted are these: water; 25° C. It is filed as physicochemical.
The nature of series [11]: Crystalline stability of Form A2 of Compound I-2 on storage. The conditions noted are these: 25° C./92.5% RH, 40° C./75% RH, 60° C.; 25 days. Format: physicochemical.
Series [12] is described as follows: Hygroscopicity by Dynamic Vapor Sorption (DVS). It is filed as physicochemical. The method, then: A polymorph screening study on Compound I-1-Acid was also carried out, which identified Form 1. […] About 0.25% weight loss from 25° C. to 120° C. and about 0.42% weight loss from 120° C. to 150° C.
Compound I-2 can have different crystalline forms. Two different polymorphs, Forms A2 and B2 were identified. Form A2 can be prepared as follows. Specifically, the white solid of Compound I-2 obtained above was dissolved in 30 mL THF:water (95:5, v/v). […] The suspension was then allowed to be stirred at room temperature overnight. After which, the solid was filtered, washed with THF:water:MTBE=7.5:1:53 (25 mL*3) to remove excess KOH, and then dried under vacuum at 25° C. overnight to provide Form A2.

What is called solubility is the concentration that dissolves in the medium under given conditions. For orientation: solubility (kinetic) means solubility judged after dilution from a stock solution rather than from solid. Take `CCCCCCCCCCCCCCCC(=O)N1CCC[C@H]1C(=O)N1CCC[C@H]1C(=O)NCC(=O)N[C@@H](Cc1ccc(O)cc1)C(=O)[O-].[Na+]` [Compound I-1, sodium palmitoyl-L-prolyl-L-prolylglycyl-L-tyrosinate] (Palmitoyl-PPGY-OH): the solubility at 24 h in series [1] (water with Cremophor RH 40 1% (w/v), HPLC) is 231 mg/mL; in series [1] (water with Cremophor RH 40 10% (w/v), HPLC), 209 mg/mL; in series [1] (water with Meglumine 1% (w/v), HPLC), 190 mg/mL; in series [1] (water with Meglumine 10% (w/v)) it was above 270 mg/mL; in [1] (water with TWEEN 80 1% (w/v), HPLC), 215 mg/mL; in [1] (water with TWEEN 80 10% (w/v), HPLC), 198 mg/mL. Further, the “stable for (storage time)” value in series [2] is at least 6 months. The kinetic solubility in [3] was around 200 mg/mL. Also, the “physical stability of solution” value in series [4] (200 mg/mL in water with 3%, 4%, or 5% meglumine, stored at 25° C., 13 days) is “good physical stability”; in series [4] (stored at 5° C., 5 mg/mL solution formulation with meglumine (2-5%)), “not physically stable”. Besides, the “Appearance: precipitation after (storage time)” value is “Precipitation after 2 days” in series [4] (2%, 200 mg/mL); “Precipitation after 1 day” in series [4] (2%, 250 mg/mL); “Precipitation after 5 days” in [4] (5%, 250 mg/mL); “Precipitation after 3 days” in series [4] (5%, 300 mg/mL). In addition, the “Appearance: no precipitation until (storage time)” value in series [4] (3%, 200 mg/mL) is at least 3 weeks; in series [4] (4%, 200 mg/mL), at least 3 weeks; in [4] (5%, 200 mg/mL), at least 3 weeks. Also, the total colitis scores result in [5] is recorded as “statistically significant improvement”. Moreover, the solubility was below 250 mg/mL in series [6] (water with HPMC E3 5% (w/v)); below 250 mg/mL in series [6] (water with HPβCD 5% (w/v)); above 250 mg/mL in [6] (water with Meglumine 2% (w/v)); above 250 mg/mL in [6] (water with Meglumine 5% (w/v)); above 250 mg/mL in [6] (water with Meglumine:Cremophor RH 40 (1:1, w/w) 10% (w/v)).

In the case of `CCCCCCCCCCCCCCCC(=O)N1CCC[C@H]1C(=O)N1CCC[C@H]1C(=O)NCC(=O)N[C@@H](Cc1ccc(O)cc1)C(=O)O` [Compound I-1-Acid] (Palmitoyl-PPGY-OH), the solubility in series [7] was below 2 µg/mL; in series [9] (1,4-Dioxane, room temperature), below 1000 µg/mL; in series [9] (1-butanol, room temperature), below 1000 µg/mL; in [9] (2-Methyl Tetrahydrofuran, room temperature), below 1000 µg/mL; in [9] (ACN—H2O (1:1), room temperature), below 1000 µg/mL; in [9] (Acetone-H2O (1:2), room temperature), below 1000 µg/mL. The solubility is below 1000 µg/mL in [9] (Acetone, room temperature); below 1000 µg/mL in [9] (Acetonitrile, room temperature); below 1000 µg/mL in series [9] (Cyclohexane, room temperature); below 1000 µg/mL in series [9] (EtOH—H2O (1:1), room temperature); below 1000 µg/mL in series [9] (EtOH—H2O (3:1), room temperature); below 1000 µg/mL in series [9] (Ethanol, room temperature). For the same compound, the solubility in series [9] (Ethyl acetate, room temperature) was below 1000 µg/mL; in series [9] (Heptane, room temperature) it was below 1000 µg/mL; in series [9] (Isopropyl acetate, room temperature) it was below 1000 µg/mL; in series [9] (Isopropyl alcohol, room temperature), below 1000 µg/mL; in series [9] (MeOH—H2O (1:1), room temperature) it was below 1000 µg/mL; in [9] (MeOH—H2O (3:1), room temperature), below 1000 µg/mL. The solubility in [9] (Methyl ethyl ketone, room temperature) was below 1000 µg/mL; in [9] (Methyl isobutyl ketone, room temperature), below 1000 µg/mL; in [9] (Methyl t-butyl ether, room temperature), below 1000 µg/mL; in [9] (N-methyl pyrrolidone, room temperature), 1000 to 5000 µg/mL (≈ 1490 to 7450 µM); in [9] (Tetrahydrofuran, room temperature), below 1000 µg/mL; in series [9] (Toluene, room temperature), below 1000 µg/mL. For the same compound, the solubility is below 1000 µg/mL in [9] (Water, room temperature); below 1000 µg/mL in [9] (most organic solvents and water, ambient laboratory temperature). In addition, the “treating inflammatory bowel diseases, multiple sclerosis, and septicemia” value in series [8] is on record as “effective”.

Take `CCCCCCCCCCCCCCCC(=O)N1CCC[C@H]1C(=O)N1CCC[C@H]1C(=O)NCC(=O)N[C@@H](Cc1ccc(O)cc1)C(=O)[O-].[K+]` [Compound I-2] (Palmitoyl-PPGY-OH): the kinetic solubility in [10] was 166 to 200 mg/mL.

On to `CCCCCCCCCCCCCCCC(=O)N1CCC[C@H]1C(=O)N1CCC[C@H]1C(=O)NCC(=O)N[C@@H](Cc1ccc(O)cc1)C(=O)[O-].[K+]` [Form A2] (Palmitoyl-PPGY-OH), for which the “crystalline stability on storage” value in series [11] is “stable”. In addition, in series [12], the “hygroscopicity (DVS)” value is “hygroscopic” and the “water absorption (DVS isotherm)” value is listed as “about 8%”.
